# Literature values, collected in US8709498B2, “Method of stimulating tissue healing” (priority 2001, dated 2014).
# Read-outs that look alike come from different tables or passages of the source.
# What was measured:
# human fibroblasts [1] = test system: human fibroblasts
# mouse macrophages = details: abolished by nitrite excess
# [2] = test system: endothelial cells of the human umbilical vein; details: HOCl 5 nM/1.2×10^5 cells, in vitro; no cell death
# human skin fibroblasts = human skin fibroblasts in vitro
# [3] = test system: polymorphonuclear neutrophils; details: HOCl 250 μM
# [4] = test system: polymorphonuclear neutrophils; details: read-out: IC50, chemiluminescence decrease
# endothelial cells = details: in vitro, (HOCl)=35 μM
# macrophages [5] = details: (NaOCl)=1.0075 mM, after two hours of contact in vitro
# human fibroblasts [6] = test system: human fibroblasts; remark: listed apart in the source
# [7] = test system: rat macrophage like-cells RAW 264.7
# [8] = test system: human macrophages, fibroblasts and keratinocytes
# macrophages [9] = test system: macrophages
# [10] = test system: human synoviocytes-like fibroblastes; details: (TauCl)=400-500 μM
# TNF-α = details: dose-dependent
# IL-1α = details: all stimulation levels
# IL-6 = details: rheumatoid arthritis fibroblast-like synoviocytes
# [11] = test system: macrophages or macrophage-line cells
# mouse dendritic cells = details: incubated 24 hours
# [12] = not given; remark: listed apart in the source
# rat RAW264.7 cells = details: for Km: read-out: Km of take-up
# IL-8 = details: rheumatoid arthritis fibroblast-like synoviocytes
smiles,measurement,setting,value
"OCl [HOCl, hypochlorous acid]",HOCl molecules taken up within the first 10 minutes,human fibroblasts [1],~80%
same,HOCl concentration above which cell death increases significantly,mouse macrophages,> 0.125 mM
same,effect on cell growth,[2],temporary stop of cell growth
same,concentration that does not alter viability or induce cytotoxicity or cell apoptose,human skin fibroblasts,< 50 µM
same,effect on hydrogen peroxide production,[3],inhibits
same,IC50,[4],100 µM
same,HOCl concentration above which cell toxicity increases progressively,human endothelial cells; exposition time-dependent,> 25 µM
same,HOCl concentration that is not toxic,human endothelial cells; human endothelial cells in vitro,≤ 25 µM
same,"HOCl concentration with cell contractions, rounding and loss of adherence","human endothelial cells; rounded within 10 minutes, majority lost adherence after three hours",50 µM
same,HOCl molecules taken up within 15 minutes,endothelial cells,100%
same,HOCl molecules taken up within ½ minute,endothelial cells,50%
"OCl [NaOCl, sodium hypochlorite]",cells alive,macrophages [5],95%
same,cells that keep their adherence to substrates,macrophages [5],40%
same,NaOCl concentration at which cell morbidity is complete,human fibroblasts [6],16.8 mM
same,cells alive,"human fibroblasts [6]; 67,165 μmol/l<(NaOCl)<671,655 μmol/l",100%
same,NaOCl concentration of highest efficiency in stimulating growth and cell proliferation,human fibroblasts [6]; FCS presence (2%),33.6 µM
same,NaOCl concentration at which viability is not altered and growth and proliferation are stimulated,"human fibroblasts [6]; FCS presence (2%), 24 hours of exposure",< 672 µM
same,NaOCl concentration at which cell viability is altered,human fibroblasts [6]; observed for 24 hours after a 15-minute exposition,"≥ 1,0075 mM"
same,stability,levels below 5 g/l of available chlorine,under 2 weeks
same,stability of NaOCl oxidative activity,pH value between 10 and 10.5 (EP 0471129 A1),greater than 24 months
same,NaOCl stability,temperature increased to 37° C.,below 24 hours
same,NaOCl concentration at which cell viability is highly altered (irreversible),[7],1 mM
same,NaOCl concentration at which toxicity can be neutralized by an antioxidant addition,[8],< 3.358 mM
same,NaOCl concentration at which toxicity is very low with an antioxidant presence,[8],< 1.679 mM
same,NaOCl concentration with high toxicity,[8],> 6.7165 mM
same,NaOCl concentration at which toxicity cannot be neutralized by antioxidants,[8]; antioxidants at physiological concentrations,13.433 mM
"O=C(O)[C@H](CO)NCl [SerCl, Serine N-chloramine]",inhibition of nitric oxide generation,"macrophages [9]; (SerCl)=300 μM, after 24 hours",22%
same,inhibition of nitric oxide generation,"macrophages [9]; (SerCl)=300 μM, immediately after its preparation",85%
"O=S(=O)(O)CCNCl [TauCl, taurine N-chloramine]",viability preserved,[10],≥ 95%
same,"IC60, TNF-α transcriptional velocity",TNF-α,400 µM
same,AP-1 DNA-bonding,AP-1; (TauCl)=250 μM,without altering
same,DNA-bonding activity of AP-1,AP-1; TauCl 500 μM,decreases
same,concentration that does not alter viability or induce cytotoxicity or cell apoptose,human skin fibroblasts,≤ 100 µM
same,effect on IL-1α production,IL-1α,no effect
same,TNF-α and ROS generation,rat DCs; (TauCl)=250 μM,not inhibited
same,"production of IL-10, IL-12, PGE2 and nitric oxide",rat DCs; (TauCl)=250 μM,inhibits
same,"release of ROS, nitric oxide, PGE2, TNF-α, IL-6, IL-10 and IL-12","rat DCs; (TauCl)=500 μM, two hours pre-incubated",almost completely inhibits
same,inhibition of nitric oxide generation,macrophages [9]; 100 µM,8-22%
same,inhibition of nitric oxide generation,macrophages [9]; 600 µM,98%
same,IC50,IL-6,~225 µM
same,TauCl concentration that alters cell viability,[11],> 1 mM
same,TauCl concentration above which cell viability decreases significantly,mouse dendritic cells,> 0.5 mM
same,TauCl concentration at which cell viability (mitochondrial activity) is not altered,mouse T cells,30 to 300 µM
same,TauCl concentration that is cytotoxic,mouse T cells,300 µM
same,oxidative activity decrease,"[12]; physiological pH (7.4), 37° C.",below 5 %/hour
same,Vmax of take-up,rat RAW264.7 cells; LPS-stimulated macrophages,82.6 pmol/min/10^6 cells
same,Km,rat RAW264.7 cells; LPS-stimulated macrophages,45.9 µM
same,Vmax of take-up,rat RAW264.7 cells; relaxed rat RAW264.7 cells,51.3 pmol/min/10^6 cells
same,Km,rat RAW264.7 cells; relaxed rat RAW264.7 cells,23.3 µM
same,bactericidal activity,E. Coli,very low bactericidal activity
same,effect on hydrogen peroxide production,[3],no effect
same,release of IL-2 and IL-6,T cells,inhibits
same,IC50,[4],550 µM
same,IC50,IL-8,~450 µM
O=S(=O)([O-])CCNCl.[Na+] [taurine N-chloramine sodium salt],stability decrease in 15 days,"[12]; aqueous solution, pH=8.3",around 30%
same,stability decrease in 65 days,"[12]; aqueous solution, pH=8.3",around 61%
same,stability decrease per day after the first 15 days,"[12]; aqueous solution, pH=8.3",around 0.71 % per day
NCCS(=O)(=O)O [taurine],effect on nitric oxide generation,macrophages [9]; taurine alone,without effect
same,Vmax of take-up,rat RAW264.7 cells; LPS-stimulated macrophages,116.3 pmol/min/10^6 cells
same,Km,rat RAW264.7 cells; LPS-stimulated macrophages,17.3 µM
same,Vmax of take-up,rat RAW264.7 cells; relaxed rat RAW264.7 cells,90.9 pmol/min/10^6 cells
same,Km,rat RAW264.7 cells; relaxed rat RAW264.7 cells,28.1 µM
